“And” between values parts separate entries of the source, which are not always exact repeats. Identical values can stand only once.
How the values were obtained:
EGFR (human) [1] = target: EGFR (human) (UniProt P00533); settings: HN5
EGFR (human) [2] = target: EGFR (human) (UniProt P00533); settings: caski
EGFR (human) [3] = target: EGFR (human) (UniProt P00533); settings: a431
EGFR (human) [4] = target: EGFR (human) (UniProt P00533); settings: hn5
EGFR (human) [5] = target: EGFR (human) (UniProt P00533); settings: siha

Chain of EGFR (human) (P00533 whole entry, looked up): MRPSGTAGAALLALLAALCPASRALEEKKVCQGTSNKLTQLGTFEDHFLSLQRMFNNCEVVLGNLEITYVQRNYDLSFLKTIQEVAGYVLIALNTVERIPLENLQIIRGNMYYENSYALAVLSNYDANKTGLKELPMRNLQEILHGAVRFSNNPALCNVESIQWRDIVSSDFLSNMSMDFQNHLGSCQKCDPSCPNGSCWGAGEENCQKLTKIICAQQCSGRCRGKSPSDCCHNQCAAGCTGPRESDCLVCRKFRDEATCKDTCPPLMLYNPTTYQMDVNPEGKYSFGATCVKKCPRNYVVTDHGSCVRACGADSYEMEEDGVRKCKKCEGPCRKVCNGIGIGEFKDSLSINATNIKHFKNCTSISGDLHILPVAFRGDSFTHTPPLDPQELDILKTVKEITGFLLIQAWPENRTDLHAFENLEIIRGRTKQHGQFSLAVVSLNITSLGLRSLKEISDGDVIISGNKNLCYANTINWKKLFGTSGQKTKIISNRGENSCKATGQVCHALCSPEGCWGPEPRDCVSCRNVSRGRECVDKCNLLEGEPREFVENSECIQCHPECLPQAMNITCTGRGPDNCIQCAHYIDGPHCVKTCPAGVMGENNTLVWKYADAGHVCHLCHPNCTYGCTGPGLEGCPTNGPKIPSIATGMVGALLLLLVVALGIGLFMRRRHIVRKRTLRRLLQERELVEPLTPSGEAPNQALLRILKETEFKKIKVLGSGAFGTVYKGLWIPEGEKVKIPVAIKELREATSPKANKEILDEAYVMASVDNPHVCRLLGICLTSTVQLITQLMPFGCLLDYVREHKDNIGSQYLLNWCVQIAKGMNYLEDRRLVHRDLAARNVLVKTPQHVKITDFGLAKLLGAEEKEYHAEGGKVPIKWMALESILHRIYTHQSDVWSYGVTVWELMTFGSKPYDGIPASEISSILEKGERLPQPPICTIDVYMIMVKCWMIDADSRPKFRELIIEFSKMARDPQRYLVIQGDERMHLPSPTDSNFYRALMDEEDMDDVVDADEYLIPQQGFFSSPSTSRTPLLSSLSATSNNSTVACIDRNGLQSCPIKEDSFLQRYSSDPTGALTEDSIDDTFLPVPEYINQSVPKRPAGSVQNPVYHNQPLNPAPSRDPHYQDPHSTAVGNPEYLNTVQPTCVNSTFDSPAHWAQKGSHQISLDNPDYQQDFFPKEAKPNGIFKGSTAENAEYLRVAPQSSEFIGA

| IC50 (EGFR (human) [1]) | IC50 (EGFR (human) [2]) [µM] | IC50 (EGFR (human) [3]) [µM] | IC50 (EGFR (human) [4]) [µM] | IC50 (EGFR (human) [5]) [µM] | Compound |
| --- | --- | --- | --- | --- | --- |
| > 500 µM | – | – | – | – | CCOC(=O)/C(C#N)=C/c1cc([N+](=O)[O-])cs1 |
| 37.5 µM | 82.9 | 71.6 | 66.9 | 82.1 | N#C/C(=C\c1ccc([N+](=O)[O-])s1)C(N)=S |
| > 500 µM | – | – | – | – | CCCCOC(=O)/C(C#N)=C/c1csc([N+](=O)[O-])c1 |
| > 500 µM | – | – | – | – | CCCCOC(=O)/C(C#N)=C/c1ccsc1[N+](=O)[O-] |
| 9 µM | – | – | – | – | CC(C)(C)OC(=O)/C(C#N)=C/c1ccsc1[N+](=O)[O-] |
| > 500 µM | – | – | – | – | N#C/C(=C\c1cc([N+](=O)[O-])cs1)C(N)=S |
| 7 µM | > 100 | > 100 | > 100 | > 100 | N#CC(C#N)=C(N)/C(C#N)=C/c1csc([N+](=O)[O-])c1 |
| 18 µM | – | – | – | – | COC(=O)/C(C#N)=C/c1cc([N+](=O)[O-])cs1 |
| 150 µM | – | – | – | – | CC(C)(C)OC(=O)/C(C#N)=C/c1csc([N+](=O)[O-])c1 |
| 50 µM | – | – | – | – | COC(=O)/C(C#N)=C/c1ccsc1[N+](=O)[O-] |
| 9 µM | > 100 | > 100 | > 100 | > 100 | CCOC(=O)/C(C#N)=C/c1csc([N+](=O)[O-])c1 |
| 150 µM and > 500 µM | – | – | – | – | N#C/C(=C\c1ccc([N+](=O)[O-])s1)C(=O)O |
| > 500 µM | – | – | – | – | N#C/C(=C\c1csc([N+](=O)[O-])c1)C(=O)O |
| 160 µM | – | – | – | – | N#CC(C#N)=C(N)/C(C#N)=C/c1cc([N+](=O)[O-])cs1 |
| 22.6 µM | 0.32 | 0.11 | 0.27 | 0.35 | N#C/C(=C\c1ccsc1[N+](=O)[O-])C(N)=S |
| 75 µM | – | – | – | – | CC(C)(C)OC(=O)/C(C#N)=C/c1ccc([N+](=O)[O-])s1 |
| 47 µM | – | – | – | – | N#C/C(=C\c1cc([N+](=O)[O-])cs1)C(N)=O |
| 400 µM | – | – | – | – | N#C/C(=C\c1ccsc1[N+](=O)[O-])C(N)=O |
| > 500 µM | – | – | – | – | CCCCOC(=O)/C(C#N)=C/c1ccc([N+](=O)[O-])s1 |
| > 500 µM | – | – | – | – | CCCCOC(=O)/C(C#N)=C/c1cc([N+](=O)[O-])cs1 |
| > 500 µM | – | – | – | – | N#C/C(=C\c1csc([N+](=O)[O-])c1)C(N)=O |
| > 500 µM | – | – | – | – | COC(=O)/C(C#N)=C/c1ccc([N+](=O)[O-])s1 |
| > 500 µM | – | – | – | – | N#C/C(=C\c1ccc([N+](=O)[O-])s1)C(N)=O |
| 100 µM | – | – | – | – | CCOC(=O)/C(C#N)=C/c1ccsc1[N+](=O)[O-] |
| 10.5 µM | – | – | – | – | N#C/C(=C\c1csc([N+](=O)[O-])c1)C(N)=S |
| 14.6 µM | 4.7 | 4.73 | 5.1 | 7.8 | N#CC(C#N)=C(N)/C(C#N)=C/c1ccsc1[N+](=O)[O-] |
| > 500 µM | – | – | – | – | COC(=O)/C(C#N)=C/c1csc([N+](=O)[O-])c1 |

| Compound | IC50 (EGFR (human) [1]) | IC50 (EGFR (human) [2]) [µM] | IC50 (EGFR (human) [3]) [µM] | IC50 (EGFR (human) [4]) [µM] | IC50 (EGFR (human) [5]) [µM] |
| --- | --- | --- | --- | --- | --- |
| N#CC(C#N)=Cc1ccc([N+](=O)[O-])s1 | 50 µM | 25.8 | 28 | 20.7 | 25.4 |
| N#CC(C#N)=Cc1ccsc1[N+](=O)[O-] | 15.3 µM | – | – | – | – |
| N#CC(C#N)=Cc1cc([N+](=O)[O-])cs1 | 2 µM | – | – | – | – |

Reference: the Kinase Knowledgebase extract (Sharma et al. 2016)
